Assay results from patent US7037937B2, “Cytotoxic compounds” (Parker Hughes Institute, priority 2001, dated 2006).

What was measured:
[1] = test system: MOLT-3 Lymphoma; assay: MTT assay, antiproliferative activity against MOLT-3; format: cell-based; settings: Homo sapiens, 24–36 hours drug exposure, 1.0 to 250 μM
From the text: (§1) The following human cancer cell lines were used in the present study: human leukemic cell lines Molt-3 and NALM-6. These cell lines were obtained from American Type Culture Collection (Manassas, Va.) and maintained as continuous cell lines in Dulbecco's modified Eagles's medium supplemented with 10% fetal bovine serum and antibiotics.
(§2) The antiproliferative activity of the COBRA compounds was examined against a panel of 2 different human tumor cell lines using standard MTT (3-[4,5-dimethylthiazol-2-yl]-2,5-diphenyl tetrazolium bromide) assays (Narla, R. K., Liu, X. P., Klis, D. and Uckun, F. M., Clin. Cancer Res., 1998, 4, 2463), (Boehringer Mannheim Corp., Indianapolis, Ind.). Briefly, exponentially growing brain tumor cells were seeded into a 96-well plate at a density of 2.5×10^4 cells/well and incubated for 36 hours at 37° C. prior to drug exposure. On the day of treatment, culture medium was carefully aspirated from the wells and replaced with fresh medium containing the test compounds at concentrations ranging from 1.0 to 250 μM. Triplicate wells were used for each treatment. The cells were incubated with the various compounds for 24–36 hours at 37° C. in a humidified 5% CO2 atmosphere. To each well, 10 μl of MTT (0.5 mg/ml final concentration) was added and the plates were incubated at 37° C. for 4 hours to allow MTT to form formazan crystals by reacting with metabolically active cells. The formazan crystals were solubilized overnight at 37° C. in a solution containing 10% SDS in 0.01 M HCl. The absorbence of each well was measured in a microplate reader (Labsystems) at 540 nm and a reference wavelength of 690 nm. To translate the OD 540 values into the number of live cells in each well, the OD 540 values were compared to those on standard OD 540—versus—cell number curves generated for each cell line. The percent survival was calculated using the formula: survival=Live cell number[test]×100/Live cell number [control].
(§3) IC50 values were calculated by non-linear regression analysis using an Graphpad Prism software version 2.0 (Graphpad Software, Inc., San Diego, Calif.).

[2] = test system: NALM-6 Leukemia; assay: MTT assay, antiproliferative activity against NALM-6; format: cell-based; settings: Homo sapiens, 24–36 hours drug exposure, 1.0 to 250 μM
From the text: as §1, §2, §3

IC50 [1] [µM] | IC50 [2] [µM] | SMILES
> 250 | 229 | CCCCCCCCCCCCC(O)c1ccco1 (centres unmarked) [AC-6]
> 250 | > 250 | CCCCCCCCCCCCC(O)c1ccc(-c2ccccc2Cl)o1 (centres unmarked) [AC-7]
125 | 204 | CCCCCCCCCCCCC(O)c1cccs1 (centres unmarked) [AC-10]
2 | 4 | CCCCCCCCCCCCC(O)c1ccc(Br)s1 (centres unmarked) [AC-11]
33 | 6 | CCCCCCCCCCCCC(O)c1ccc(C=O)s1 (centres unmarked) [AC-12]
4 | > 250 | CCCCCCCCCCCCC(O)c1nccs1 (centres unmarked) [AC-13]
58 | 3 | CCCCCCCCCCCCC(O)c1ncc[nH]1 (centres unmarked) [AC-14]
9 | 25 | CCCCCCCCCCCCC(O)c1[nH]cnc1C (centres unmarked) [AC-15]
> 250 | 236 | CCCCCCCCCCCCC(O)c1cccc(C)n1 (centres unmarked) [AC-16]
246 | 221 | CCCCCCCCCCCCC(O)c1ccccn1 (centres unmarked) [AC-17]
